Measured values taken from ChEMBL document CHEMBL5032489, “Selective Discovery of GPCR Ligands within DNA-Encoded Chemical Libraries Derived from Natural Products: A Case Study on Antagonists of Angiotensin II Type I Receptor” (J Med Chem, 2021).
Blank lines part the entries; values can stand above or below the molecule they belong to. The source made the active and inactive calls. No cut-off for these calls is given here.

Tests used:
[1] = biological target: T1, Type-1 angiotensin II receptor (Homo sapiens) (UniProt P30556); test: (§1) Displacement of [125-I]-[Sar1, AngII from AT1R (unknown origin) expressed in Escherichia coli BL 21 (DE3) incubated for 2 hrs by radioimmunoassay
T1 sequence (whole entry): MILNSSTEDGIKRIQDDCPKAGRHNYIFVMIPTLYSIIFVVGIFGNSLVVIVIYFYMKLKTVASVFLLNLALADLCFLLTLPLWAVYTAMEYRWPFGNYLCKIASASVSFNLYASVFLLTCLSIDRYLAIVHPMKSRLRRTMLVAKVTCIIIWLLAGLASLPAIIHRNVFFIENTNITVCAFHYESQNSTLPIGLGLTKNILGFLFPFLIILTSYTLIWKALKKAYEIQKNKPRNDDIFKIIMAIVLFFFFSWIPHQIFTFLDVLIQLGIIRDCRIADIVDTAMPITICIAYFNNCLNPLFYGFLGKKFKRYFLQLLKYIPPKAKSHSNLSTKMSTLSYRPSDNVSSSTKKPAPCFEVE

[2] = system: Rattus norvegicus; test: Antihypertensive activity against two-kidney two clip renovascular hypertensive Sprague-Dawley rat model assessed as decrease in systolic blood pressure at 8.3 mg/kg, po measured after 4 days of treatment by noninvasive sphygmomanometry; assay type: functional, organism-based; conditions: time 4.0 day
[3] = biological target: T2, Type-1 angiotensin II receptor (Homo sapiens, UniProt P30556); test: as §1
T2 sequence (P30556 whole entry): T1 sequence (whole entry)

[4] = system: Rattus norvegicus; test: Antihypertensive activity against two-kidney two clip renovascular hypertensive Sprague-Dawley rat model assessed as decrease in systolic blood pressure at 15 to 30 mg/kg, po measured after 4 days of treatment by noninvasive sphygmomanometry; assay type: functional, organism-based; conditions: dose 15-30 mg/kg, time 4.0 day
[5] = Cmax in two-kidney two clip renovascular hypertensive Sprague-Dawley rat model at 30 mg/kg, po by HPLC-MS/MS analysis; assay type: ADME, organism-based; design: route oral, dose 30 mg/kg; conditions: in vivo
[6] = AUC (0-infinity) in two-kidney two clip renovascular hypertensive Sprague-Dawley rat model at 30 mg/kg, po by HPLC-MS/MS analysis; assay type: ADME, organism-based; design: route oral, time infinity, dose 30 mg/kg; conditions: in vivo
[7] = Cmax in two-kidney two clip renovascular hypertensive Sprague-Dawley rat model at 15 mg/kg, po by HPLC-MS/MS analysis; assay type: ADME, organism-based; design: route oral, dose 15 mg/kg; conditions: in vivo
[8] = biological target: T2, Type-1 angiotensin II receptor; test: Binding affinity to AT1R (unknown origin) expressed in Escherichia coli strain BL 21 (DE3) incubated for 20 mins by SDS PAGE analysis
[9] = Cmax in two-kidney two clip renovascular hypertensive Sprague-Dawley rat model at 5 mg/kg, po by HPLC-MS/MS analysis; assay type: ADME, organism-based; design: route oral, dose 5 mg/kg; conditions: in vivo
[10] = AUC (0-t) in two-kidney two clip renovascular hypertensive Sprague-Dawley rat model at 30 mg/kg, po by HPLC-MS/MS analysis; assay type: ADME, organism-based; design: dose 30 mg/kg; conditions: in vivo
[11] = AUC (0-t) in two-kidney two clip renovascular hypertensive Sprague-Dawley rat model at 5 mg/kg, po by HPLC-MS/MS analysis; assay type: ADME, organism-based; design: dose 5 mg/kg; conditions: in vivo
[12] = AUC (0-infinity) in two-kidney two clip renovascular hypertensive Sprague-Dawley rat model at 15 mg/kg, po by HPLC-MS/MS analysis; assay type: ADME, organism-based; design: time infinity, route oral, dose 15 mg/kg; conditions: in vivo
[13] = Toxicity in two-kidney two clip renovascular hypertensive Sprague-Dawley rat model assessed as heart rate at 15 to 30 mg/kg, po measured after 4 days of treatment by noninvasive sphygmomanometry; assay type: organism-based; conditions: in vivo, 96 h, dose 15-30 mg/kg, time 4 day
[14] = system: Rattus norvegicus; test: Antihypertensive activity against two-kidney two clip renovascular hypertensive Sprague-Dawley rat model assessed as decrease in diastolic blood pressure at 15 to 30 mg/kg, po measured after 4 days of treatment by noninvasive sphygmomanometry; assay type: functional, organism-based; conditions: dose 15-30 mg/kg, time 4.0 day
[15] = AUC (0-infinity) in two-kidney two clip renovascular hypertensive Sprague-Dawley rat model at 5 mg/kg, po by HPLC-MS/MS analysis; assay type: ADME, organism-based; design: route oral, time infinity, dose 5 mg/kg; conditions: in vivo
[16] = AUC (0-t) in two-kidney two clip renovascular hypertensive Sprague-Dawley rat model at 15 mg/kg, po by HPLC-MS/MS analysis; assay type: ADME, organism-based; design: dose 15 mg/kg; conditions: in vivo

SMILES: Cc1cc(Cn2cnc3c2C[C@@H](C(=O)O)N(C(=O)C(c2ccccc2)c2ccccc2)C3)ccc1N(C)C
Activity [1]: inactive

SMILES: CCCCC(=O)N(Cc1ccc(-c2ccccc2-c2nnn[nH]2)cc1)[C@H](C(=O)O)C(C)C
Activity [2]: Active

Now from value to molecule, other results behind:

Activity [1]: inactive
SMILES: NC[C@H](O)c1ccc(O)c(O)c1

IC50 [3]: 125 nM
SMILES: O=C(O)/C=C/c1ccc(O)c(O)c1 [CAFFEIC ACID]

Cmax [5]: 446 ng/mL
AUC [6]: 35096.1 µg·min/L
Cmax [7]: 220 ng/mL
Kd [8]: 0.49 nM
Cmax [9]: 80.6 ng/mL
AUCt [10]: 34243 µg·min/L
AUCt [11]: 5707.6 µg·min/L
AUC [12]: 19332.5 µg·min/L
IC50 [3]: 19.6 nM
AUC [15]: 6088 µg·min/L
AUCt [16]: 18123.5 µg·min/L
SMILES: CCOC(=O)[C@@H](Cc1ccc(F)cc1)NC(=O)[C@@H](CC1CCCCC1)NC(=O)[C@@H](C)NC(=O)/C=C/c1ccc(O)c(O)c1
Activity [4]: Active
Activity [13]: Non-Toxic
Activity [14]: Active
